The target of the experiment is TNFα (Homo sapiens, UniProt P01375). The experiment can be described thus: TNFα FP Competitive Binding Assay. Conditions: 20 nM TNFα trimer, 1 nM OregonGreen488 probe, read-out: TNF IC50. As for the experimental part:
TNFα FP Competitive Binding Assay
Prepare 1× Assay Buffer (Water with 47 mil HEPES, 47 mM NaCl, 0.9 mM EDTA, 0.0071% Triton X-100) by adding 25 mL of 1 M HEPES, 5 mL of 5 M NaCl, 1 mL of 0.5 M EDTA, and 375 μL of a 10% Triton X-100 stock to a fresh 500 mL bottle of water.
Prepare fresh Assay Mixture containing 20 nM TNFα trimer (60 nM protein) and 1 nM 2′,7′-difluoro-3′,6′-dihydroxy-N-(2-(2-(2-((4-(isoquinolin-8-yl)-3-(4-(isoquinolin-8-yl)phenethoxy)benzyl)oxy)ethoxy)ethoxy)ethyl)-3-oxo-3H- spiro[isobenzofuran-1,9′-xanthene]-5-carboxamide probe in 1× Assay Buffer.
Top concentration of compounds, 10 mM in DMSO, dispensed in rows A-O in columns 1 and 13. Compounds are serially diluted 1:3 with DMSO in columns 2-12 or 14-24 using a 16-channel Matrix pipettor. Plates stored at −20° C.
Top concentration, 5 mM in DMSO, of compounds placed in rows A-O in columns 1 and 13.
Compounds are serially diluted 1:3 with DMSO in columns 2-12 or 14-24. Compound solutions are dispensed into replicate assay plates at 410 nL per well. Plates stored at 4° C.
TNFα FP Competitive Binding Assay Protocol • 1. Compound plates warmed to rt. • 2. Fresh Assay Mixture is prepared. • 3. Assay Mixture (20 μL) is dispensed each well of 384 assay plates using a Thermo Multidrop Combi or 16-channel Matrix pipettor. If Manual 12-point 1:3 Dilution Plates are to be tested, Assay Mix is dispensed into empty plates. Discovery Preps 12-point 1:3 Dilution Plates already contain 410 nL compound solution in DMSO. • 4. For Manual 12-point 1:3 Dilution Plates, 0.7 μL is manually transferred using a 16-channel Matrix pipettor to replicate assay plates containing 20 μL Assay Mixture for a final top compound concentration of […] (3.4% DMSO). • 5. For Discovery Preps 12-point 1:3 Dilution Plates, 20 μL Assay Mixture added the 410 nL compound solution already in the plates yields a final top compound concentration of 100 μM (2.0% DMSO). • 6. Background subtraction controls are wells P1-P8 containing only Assay Buffer. The low % inhibition controls are wells P9-P16 containing only Assay Mix. The high % inhibition are wells P17-P24 containing only 1 nM 2′,7′-difluoro-3′,6′-dihydroxy-N-(2-(2-(2-((4-(isoquinolin-8-yl)-3-(4-(isoquinolin-8-yl)phenethoxy)benzyl)oxy)ethoxy)ethoxy)ethyl)-3-oxo-3H-spiro[isobenzofuran-1,9′-xanthene]-5-carboxamide probe in 1× Assay Buffer. • 7. Plates are incubated at rt for 18-24 h in […] (CO2 is off). • 8. Prior to reading the assay, the plates are placed in a dark cabinet to equilibrate at rt for one hour. • 9. Background-subtracted fluorescence polarization (mP) is measured using a PerkinElmer Envision plate reader. • 10. Raw data is entered into Assay Explorer and dose-response curves are generated using a variable slope curve.

Some results are limits rather than exact numbers.

Sequence of TNFα (P01375 77-233 limits assumed): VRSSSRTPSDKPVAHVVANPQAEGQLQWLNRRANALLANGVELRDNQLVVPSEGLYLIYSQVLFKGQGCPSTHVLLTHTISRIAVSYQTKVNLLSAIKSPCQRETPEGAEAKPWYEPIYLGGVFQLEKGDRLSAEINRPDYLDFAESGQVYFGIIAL

Regarding `O=c1c2ccc(-c3cnc(N4CCC5(CC4)CC(O)C5)nc3)cc2n2n1CC[C@H]2c1ccccc1OC(F)F` (single isomer, unassigned) [Example 4.8], the concentration for half-maximal inhibition (IC50) is under 1000 nM.

`O=c1c2ccc(-c3cnc(N4CCO[C@H](CO)C4)nc3)cc2n2n1CC[C@H]2c1ccccc1OC(F)F` (single isomer, unassigned) [Example 2.1]: the IC50 was under 1000 nM.

Regarding `O=c1c2ccc(-c3cnc(N4CCC(O)CC4)nc3)cc2n2n1CCCC2c1ccccc1OC(F)F` (stereo not shown) [Example 7.2, 6-(2-(difluoromethoxy)phenyl)-3-(2-(4-hydroxypiperidin-1-yl)pyrimidin-5-yl)-8,9-dihydro-6H-pyridazino[1,2-a]indazol-11(7H)-one], the IC50 lay within 1000 to 10000 nM.

In the case of `O=C1C[C@H](CNc2ncc(-c3ccc4c(=O)n5n(c4c3)[C@H](c3ccccc3OC(F)F)CC5)cn2)CN1` (single isomer, unassigned) [Example 4.6], the IC50 lay in the range of 1000 to 10000 nM.

With `O=c1c2ccc(-c3cnc(N4CCOCC4)nc3)cc2n2n1CCCC2c1ccccc1OC(F)F` (stereo not shown) [Example 7.1, 6-(2-(difluoromethoxy)phenyl)-3-(2-morpholinopyrimidin-5-yl)-8,9-dihydro-6H-pyridazino[1,2-a]indazol-11(7H)-one], the concentration for half-maximal inhibition (IC50) is under 1000 nM.

`CC(C)(O)c1ncc(-c2ccc3c(=O)n4n(c3c2)[C@H](c2ccccc2OC(F)F)CC4)cn1` (single isomer, unassigned) [Example 4.1]: the half-inhibitory concentration (IC50) was 1000 to 10000 nM.

Regarding `Cc1ccc(OC(F)F)c([C@H]2CCn3c(=O)c4cc(F)c(-c5cnc(C(C)(C)O)nc5)cc4n32)c1` (single isomer, unassigned) [Example 13.1], the IC50 is under 1000 nM.

As for `COc1c(C#N)cccc1C1CCn2c(=O)c3ccc(-c4cnc(N5CCOCC5)nc4)cc3n21` (stereo not shown) [Example 8.4, 2-methoxy-3-(6-(2-morpholinopyrimidin-5-yl)-9-oxo-1,2,3,9-tetrahydropyrazolo[1,2-a]indazol-3-yl)benzonitrile], the IC50 was 1000 to 10000 nM.

In the case of `C[C@@H]1CN(c2ncc(-c3ccc4c(=O)n5n(c4c3)[C@@H](c3ccccc3OC(F)F)CC5)cn2)CCN1C(=O)CO` (single isomer, unassigned) [Example 6.4], the IC50 was under 1000 nM.

Turning to `O=C1NC[C@H]2CN(c3ncc(-c4ccc5c(=O)n6n(c5c4)[C@@H](c4ccccc4OC(F)F)CC6)cn3)CCN12` (single isomer, unassigned) [Example 6.1], the IC50 is under 1000 nM.

As for `O=C1C[C@@H](CNc2ncc(-c3ccc4c(=O)n5n(c4c3)[C@@H](c3ccccc3OC(F)F)CC5)cn2)CN1` (single isomer, unassigned) [Example 4.3], the half-inhibitory concentration (IC50) fell in the range of 1000 to 10000 nM.

As to `CC(C)n1nccc1C1CCn2c(=O)c3ccc(-c4cnc(N5CCOCC5)nc4)cc3n21` (stereo not shown) [Example 8.5, 3-(1-isopropyl-1H-pyrazol-5-yl)-6-(2-morpholinopyrimidin-5-yl)-2,3-dihydropyrazolo[1,2-a]indazol-9(1H)-one], the 50% inhibitory concentration (IC50) is over 10000 nM.

Turning to `O=C1NC[C@@H]2CN(c3ncc(-c4ccc5c(c4)[C@H]4[C@@H](c6ccccc6OC(F)F)CCN4C5=O)cn3)CCN12` (single isomer, unassigned) [Example 11.1], the IC50 is under 1000 nM.

Turning to `O=c1c2ccc(-c3cnc(N4CCC5(CC4)CC(O)C5)nc3)cc2n2n1CC[C@@H]2c1ccccc1OC(F)F` (single isomer, unassigned) [Example 4.7], the half-inhibitory concentration (IC50) is under 1000 nM.

Take `O=c1c2ccc(-c3cnc(N4CCO[C@H](CO)C4)nc3)cc2n2n1CC[C@@H]2c1ccccc1OC(F)F` (single isomer, unassigned) [Example 3.1]: the half-inhibitory concentration (IC50) was under 1000 nM.

Turning to `O=c1c2ccc(-c3cnc(N4CCOCC4)nc3)cc2n2n1CCC2c1ccccc1OC(F)F` (stereo not shown) [Example 1, 3-(2-(Difluoromethoxy)phenyl)-6-(2-morpholinopyrimidin-5-yl)-2,3-dihydropyrazolo[1,2-a]indazol-9(1H)-one], the half-inhibitory concentration (IC50) is under 1000 nM.

What is called IC50 is the concentration at which inhibition is half-maximal.
